This note sets out measurements from PubChem BioAssay AID1259407 (Chemical Carcinogenesis Research Information System (CCRIS), 2018).

Active and inactive are the calls of the source. How the calls were made is not given here.

The subject of this series is CCRIS mutagenicity, Ames/micronucleus/aberration tests. The experiment in a line: CCRIS mutagenicity studies. Conditions: Test System: AMES SALMONELLA TYPHIMURIUM
The mark [1] stands for this setting: Strain/Indicator: TA98, Metabolic Activation: NONE, Method: STANDARD PLATE.
The mark [2] stands for this setting: Strain/Indicator: TA100, Metabolic Activation: NONE, Method: STANDARD PLATE.
Where [3] appears, read: Strain/Indicator: TA97, Metabolic Activation: HAMSTER, LIVER, S-9, AROCLOR 1254 (10 OR 30%), Method: PREINCUBATION
The mark [4] stands for this setting: Strain/Indicator: TA97, Metabolic Activation: NONE, Method: PREINCUBATION
Setting [5] is: Strain/Indicator: TA97, Metabolic Activation: RAT, LIVER, S-9, AROCLOR 1254 (10 OR 30%), Method: PREINCUBATION
Where [6] appears, read: Strain/Indicator: TA98, Metabolic Activation: HAMSTER, LIVER, S-9, AROCLOR 1254 (10 OR 30%), Method: PREINCUBATION
Setting [7] is: Strain/Indicator: TA98, Metabolic Activation: NONE, Method: PREINCUBATION
The mark [8] stands for this setting: Strain/Indicator: TA98, Metabolic Activation: RAT, LIVER, S-9, AROCLOR 1254 (10 OR 30%), Method: PREINCUBATION
Setting [9] is: Strain/Indicator: TA100, Metabolic Activation: HAMSTER, LIVER, S-9, AROCLOR 1254 (10 OR 30%), Method: PREINCUBATION
Where [10] appears, read: Strain/Indicator: TA100, Metabolic Activation: NONE, Method: PREINCUBATION
[11] abbreviates: Strain/Indicator: TA100, Metabolic Activation: RAT, LIVER, S-9, AROCLOR 1254 (10 OR 30%), Method: PREINCUBATION
The mark [12] stands for this setting: Strain/Indicator: TA1535, Metabolic Activation: HAMSTER, LIVER, S-9, AROCLOR 1254 (10 OR 30%), Method: PREINCUBATION
Setting [13] is: Strain/Indicator: TA1535, Metabolic Activation: NONE, Method: PREINCUBATION
[14] abbreviates: Strain/Indicator: TA1535, Metabolic Activation: RAT, LIVER, S-9, AROCLOR 1254 (10 OR 30%), Method: PREINCUBATION

As for `CC(=O)N(O)c1ccc2ccc3cccc4ccc1c2c34`, the mutagenic call (Strain/Indicator: TA98(1,8-DNP6), Metabolic Activation: NONE, Method: STANDARD PLATE) is “active; positive”; the mutagenic call (Strain/Indicator: TA98(1,8-DNP6), Metabolic Activation: RAT, LIVER, S-9, AROCLOR 1254, Method: STANDARD PLATE) is “active; positive”; the mutagenic call (Strain/Indicator: TA98(NR), Metabolic Activation: NONE, Method: STANDARD PLATE) was “active; positive”; the mutagenic call (Strain/Indicator: TA98(NR), Metabolic Activation: RAT, LIVER, S-9, AROCLOR 1254, Method: STANDARD PLATE) is “active; positive”; the mutagenic call under setting [1] was “active; positive”; the mutagenic call (Strain/Indicator: TA98, Metabolic Activation: RAT, LIVER, S-9, AROCLOR 1254, Method: STANDARD PLATE) was “active; positive”.

In the case of `CC(C)CCC[C@@H](C)[C@H]1CC[C@H]2[C@@H]3C(=O)C=C4C[C@@H](O)CC[C@]4(C)[C@H]3CC[C@]12C`, the mutagenic call (Strain/Indicator: TA97, Metabolic Activation: NONE, Method: STANDARD PLATE) was “inactive; negative”; the mutagenic call under setting [1] is “inactive; negative”; the mutagenic call under setting [2] was “inactive; negative”; the mutagenic call (Strain/Indicator: TA102, Metabolic Activation: NONE, Method: STANDARD PLATE) is “inactive; negative”; the mutagenic call (Strain/Indicator: TA1535, Metabolic Activation: NONE, Method: STANDARD PLATE) was “inactive; negative”.

Consider `Cc1ccc(N=Nc2c(O)c(C(=O)O)cc3ccccc23)cc1S(=O)(=O)O`, for which the mutagenic call by setting is: under setting [1], “inactive; negative”; (Strain/Indicator: TA98, Metabolic Activation: RAT, LIVER, S-9, Method: STANDARD PLATE) “inactive; negative”; under setting [2], “inactive; negative”; (Strain/Indicator: TA100, Metabolic Activation: RAT, LIVER, S-9, Method: STANDARD PLATE) “inactive; negative”.

For the molecule `Cc1c(N)nc(C(CC(N)=O)NCC(N)C(N)=O)nc1C(=O)NC(C(=O)NC(C)C(O)C(C)C(=O)NC(C(=O)NCCc1nc(-c2nc(C(=O)NCCc3cnc[nH]3)cs2)cs1)C(C)O)C(OC1OC(CO)C(O)C(O)C1OC1OC(CO)C(O)C(OC(N)=O)C1O)c1cnc[nH]1` (stereo not given), the mutagenic call (Strain/Indicator: TA102, Metabolic Activation: NONE, Method: PREINCUBATION) is “active; positive”.

Regarding `C=C(C)C(=O)OCCCCCCCC(C)C`, the mutagenic call was “inactive; negative” under setting [3]; “inactive; negative” under setting [4]; “inactive; negative” under setting [5]; “inactive; negative” under setting [6]; “inactive; negative” under setting [7]; “inactive; negative” under setting [8]. Besides, the mutagenic call is “inactive; negative” under setting [9]; “inactive; negative” under setting [10]; “inactive; negative” under setting [11]; “inactive; negative” under setting [12]; “inactive; negative” under setting [13]; “inactive; negative” under setting [14].

For `C=CCSSCCC`, the mutagenic call was “inactive; negative” under setting [3]; “inactive; negative” under setting [4]; “inactive; negative” under setting [5]; “inactive; negative” under setting [6]; “inactive; negative” under setting [7]; “inactive; negative” under setting [8]. Further, the mutagenic call runs as follows: under setting [9], “inactive; negative”; under setting [10], “inactive; negative”; under setting [11], “inactive; negative”; under setting [12], “inactive; negative”; under setting [13], “inactive; negative”; under setting [14], “inactive; negative”.
